Reference: the NIST ThermoML archive (doi:10.1016/j.fluid.2008.02.021)

What was measured:
[1] = for vapor or sublimation pressure: Liquid, Closed cell (Static) method; for Normal melting temperature: Crystal
[2] = excess molar enthalpy (molar enthalpy of mixing); xn = mol fraction of the nth substance listed; conditions: Liquid, Flow calorimetry

O=C1CCCCC1 [cyclohexanone]
[1]
Conditions | Normal melting temperature [°C] | vapor or sublimation pressure [kPa]
323.15 K | – | 2.23
363.15 K | – | 13.05
visual observation | -27.2 | –

OC1CCCCC1 [cyclohexanol] + O=C1CCCCC1
[2]
Conditions | excess molar enthalpy [kJ/mol]
363.15 K, 1651 kPa, x2 = 0.051 | 0.272
363.15 K, 1651 kPa, x2 = 0.102 | 0.52
363.15 K, 1651 kPa, x2 = 0.153 | 0.734
363.15 K, 1651 kPa, x2 = 0.204 | 0.919
363.15 K, 1651 kPa, x2 = 0.254 | 1.07
363.15 K, 1651 kPa, x2 = 0.305 | 1.19
363.15 K, 1651 kPa, x2 = 0.355 | 1.28
363.15 K, 1651 kPa, x2 = 0.406 | 1.34
363.15 K, 1651 kPa, x2 = 0.456 | 1.38
363.15 K, 1651 kPa, x2 = 0.506 | 1.4
363.15 K, 1651 kPa, x2 = 0.555 | 1.37
363.15 K, 1651 kPa, x2 = 0.605 | 1.32
363.15 K, 1651 kPa, x2 = 0.655 | 1.25
363.15 K, 1651 kPa, x2 = 0.705 | 1.15
363.15 K, 1651 kPa, x2 = 0.754 | 1.02
363.15 K, 1651 kPa, x2 = 0.803 | 0.87
363.15 K, 1651 kPa, x2 = 0.853 | 0.688
363.15 K, 1651 kPa, x2 = 0.902 | 0.482
363.15 K, 1651 kPa, x2 = 0.951 | 0.249
413.15 K, 1582 kPa, x2 = 0.051 | 0.163
413.15 K, 1582 kPa, x2 = 0.102 | 0.311
413.15 K, 1582 kPa, x2 = 0.153 | 0.444
413.15 K, 1582 kPa, x2 = 0.203 | 0.561
413.15 K, 1582 kPa, x2 = 0.254 | 0.657
413.15 K, 1582 kPa, x2 = 0.304 | 0.733
413.15 K, 1582 kPa, x2 = 0.355 | 0.794
413.15 K, 1582 kPa, x2 = 0.405 | 0.832
413.15 K, 1582 kPa, x2 = 0.455 | 0.852
413.15 K, 1582 kPa, x2 = 0.505 | 0.863
413.15 K, 1582 kPa, x2 = 0.555 | 0.846
413.15 K, 1582 kPa, x2 = 0.605 | 0.817
413.15 K, 1582 kPa, x2 = 0.655 | 0.766
413.15 K, 1582 kPa, x2 = 0.704 | 0.701
413.15 K, 1582 kPa, x2 = 0.754 | 0.621
413.15 K, 1582 kPa, x2 = 0.803 | 0.526
413.15 K, 1582 kPa, x2 = 0.853 | 0.412
413.15 K, 1582 kPa, x2 = 0.902 | 0.285
413.15 K, 1582 kPa, x2 = 0.951 | 0.146

CCCCCCC(C)=O [2-octanone] + CCCCCCO
excess molar enthalpy [kJ/mol], [2], 1617 kPa
Conditions | 363.15 K | 413.15 K
x2 = 0.062 | 0.343 | 0.247
x2 = 0.122 | 0.635 | 0.468
x2 = 0.181 | 0.878 | 0.655
x2 = 0.238 | 1.07 | 0.812
x2 = 0.294 | 1.22 | 0.928
x2 = 0.349 | 1.33 | 1.02
x2 = 0.402 | 1.4 | 1.08
x2 = 0.455 | 1.44 | 1.12
x2 = 0.506 | 1.45 | 1.13
x2 = 0.556 | – | 1.13
x2 = 0.557 | 1.43 | –
x2 = 0.605 | 1.37 | 1.09
x2 = 0.652 | 1.3 | 1.03
x2 = 0.699 | 1.2 | 0.96
x2 = 0.745 | 1.08 | 0.864
x2 = 0.79 | 0.948 | 0.758
x2 = 0.833 | 0.793 | 0.637
x2 = 0.876 | 0.618 | 0.501
x2 = 0.918 | 0.427 | 0.351
x2 = 0.96 | 0.22 | 0.18

CCCCCCO [hexan-1-ol]
[1]
Conditions | vapor or sublimation pressure [kPa]
323.15 K | 0.7226
363.15 K | 7.229

Conditions | Normal melting temperature [°C]
[1] | -44

OC1CCCCC1 [cyclohexanol]
[1]
Conditions | Normal melting temperature [°C] | vapor or sublimation pressure [kPa]
323.15 K | – | 0.7399
363.15 K | – | 6.882
visual observation | 24.1 | –

CCCCCCC(C)=O [2-octanone]
[1]
Conditions | vapor or sublimation pressure [kPa]
323.15 K | 0.8706
363.15 K | 6.397

Conditions | Normal melting temperature [°C]
[1] | -19.7
